Data on 48 molecules can be found in patent publication US7528138B2, “Pyrazolo[1,5-a]pyrimidines useful as inhibitors of protein kinases” (Vertex Pharmaceuticals Incorporated, priority 2004, dated 2009).

Bounds are passed on as bounds.

In general, Ki refers to the dissociation constant of the complex between target and ligand, obtained from inhibition or displacement.

For one test, the target named is T1, Aurora-2 (Homo sapiens, UniProt O14965).
T1 sequence (O14965 1-403): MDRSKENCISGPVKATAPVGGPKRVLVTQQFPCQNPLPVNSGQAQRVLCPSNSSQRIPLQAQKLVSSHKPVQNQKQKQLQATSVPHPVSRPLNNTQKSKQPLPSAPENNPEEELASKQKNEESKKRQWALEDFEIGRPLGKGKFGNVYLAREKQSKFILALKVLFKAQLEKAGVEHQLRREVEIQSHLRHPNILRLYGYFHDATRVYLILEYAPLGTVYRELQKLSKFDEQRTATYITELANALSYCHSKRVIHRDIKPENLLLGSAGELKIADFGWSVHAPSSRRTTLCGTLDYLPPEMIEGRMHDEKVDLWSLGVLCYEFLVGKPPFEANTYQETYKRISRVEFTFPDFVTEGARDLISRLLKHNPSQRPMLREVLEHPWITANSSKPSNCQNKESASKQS
The test can be described thus: Aurora-A (Aurora-2) Inhibition Assay, coupled enzyme assay. The class given is biochemical. The conditions noted are these: enzyme inhibition data (Ki), Table 11; read-out: AurA Ki. The essentials: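 Coupled pyruvate kinase/lactate dehydrogenase assay following NADH, pH 7.5 Hepes, 40 nM Aurora-2, 400 μM ATP and 570 μM Kemptide at 30 °C. Compound (top final typically 7.5 μM) preincubated 10 min; initial rates over 10 min; IC50 and Ki by non-linear regression.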

Another test has as its target c-Met (Homo sapiens, UniProt P08581). As to the kind of experiment: c-Met Inhibition Assay, coupled enzyme system. In kind it is biochemical. The note with it: enzyme inhibition data (Ki), Table 11. A digest of the protocol:
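Pyruvate kinase/lactate dehydrogenase-coupled NADH assay in HEPES pH 7.5 with 80 nM c-Met, 200 μM ATP and 10 μM polyGluTyr at 30° C. Compound (0.006–12.5 μM final, 12-point) preincubated 10 min before ATP start; rates over 10 min gave Ki.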

Chain of c-Met (P08581 25-1390): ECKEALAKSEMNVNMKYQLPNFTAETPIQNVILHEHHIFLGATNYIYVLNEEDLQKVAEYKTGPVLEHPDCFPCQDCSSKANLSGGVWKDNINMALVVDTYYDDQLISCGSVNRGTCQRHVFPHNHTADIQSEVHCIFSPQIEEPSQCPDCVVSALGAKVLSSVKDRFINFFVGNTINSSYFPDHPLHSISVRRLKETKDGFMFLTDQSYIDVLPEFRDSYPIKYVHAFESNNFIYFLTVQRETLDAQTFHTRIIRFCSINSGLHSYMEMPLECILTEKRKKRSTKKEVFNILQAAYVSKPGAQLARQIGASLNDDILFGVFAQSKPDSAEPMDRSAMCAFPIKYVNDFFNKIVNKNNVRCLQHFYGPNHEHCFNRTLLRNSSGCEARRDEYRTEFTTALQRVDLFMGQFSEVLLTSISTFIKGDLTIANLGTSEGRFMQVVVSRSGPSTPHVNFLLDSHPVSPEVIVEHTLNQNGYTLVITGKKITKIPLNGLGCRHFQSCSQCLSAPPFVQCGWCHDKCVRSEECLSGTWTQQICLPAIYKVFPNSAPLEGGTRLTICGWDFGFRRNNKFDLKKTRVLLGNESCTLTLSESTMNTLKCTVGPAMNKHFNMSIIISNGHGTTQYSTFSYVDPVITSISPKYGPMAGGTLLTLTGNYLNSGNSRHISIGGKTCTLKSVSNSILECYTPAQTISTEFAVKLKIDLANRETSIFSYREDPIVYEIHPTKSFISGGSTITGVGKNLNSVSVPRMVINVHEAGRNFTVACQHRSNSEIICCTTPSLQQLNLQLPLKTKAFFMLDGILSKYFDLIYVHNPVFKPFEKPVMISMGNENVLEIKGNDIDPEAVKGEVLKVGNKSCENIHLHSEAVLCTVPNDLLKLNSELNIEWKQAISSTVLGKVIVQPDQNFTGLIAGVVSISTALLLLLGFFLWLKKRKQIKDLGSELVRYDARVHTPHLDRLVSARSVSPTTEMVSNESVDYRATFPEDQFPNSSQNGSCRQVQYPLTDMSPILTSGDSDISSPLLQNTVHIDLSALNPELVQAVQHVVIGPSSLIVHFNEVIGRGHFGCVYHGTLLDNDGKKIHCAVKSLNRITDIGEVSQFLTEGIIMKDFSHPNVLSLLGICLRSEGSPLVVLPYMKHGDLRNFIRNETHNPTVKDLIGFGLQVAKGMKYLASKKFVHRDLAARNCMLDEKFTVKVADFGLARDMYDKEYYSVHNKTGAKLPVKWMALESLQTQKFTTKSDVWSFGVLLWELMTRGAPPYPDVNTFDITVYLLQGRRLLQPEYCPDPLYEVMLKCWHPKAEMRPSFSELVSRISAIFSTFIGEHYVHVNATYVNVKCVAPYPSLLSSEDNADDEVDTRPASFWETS

On to `COc1ccc(-c2cnc3c(C#N)c(N)nn3c2)cc1` [Compound V-2], for which the Ki on Aurora-2 and on c-Met was 500 to 5000 nM in each case.

With `COc1ccncc1-c1cnc2c(-c3ccccn3)c(N)nn2c1` [Compound V-22], the Ki was 500 to 5000 nM at Aurora-2 and less than 500 nM at c-Met.

Regarding `CCOC(=O)c1c(N)nn2cc(-c3ccc(Cl)cc3)cnc12` [Compound V-24], the Ki on Aurora-2 and at c-Met was 500 to 5000 nM each time.

`CCN(C(=O)c1c(N)nn2cc(-c3ccncn3)cnc12)C(C)C` [Compound V-33]: the Ki on Aurora-2 and on c-Met was 500 to 5000 nM in each case.

Turning to `CC(C)N1CCN(c2ccc(-c3cnc4c(-c5ccccn5)c(N)nn4c3)cc2)CC1` [Compound V-51], the Ki was 500 to 5000 nM on Aurora-2 and less than 500 nM on c-Met.

`CN(C)CCNC(=O)c1cccc(-c2cnc3c(-c4ccccn4)c(N)nn3c2)c1` [Compound V-54]: the figures for the Ki on Aurora-2 and on c-Met were 500 to 5000 nM and less than 500 nM, respectively.

Turning to `CN1CCN(C(=O)c2cccc(-c3cnc4c(-c5ccccn5)c(N)nn4c3)c2)CC1` [Compound V-55], the Ki on Aurora-2 is 500 to 5000 nM; on c-Met, less than 500 nM.

As for `Nc1nn2cc(N3CCOCC3)cnc2c1-c1ccccn1` [Compound V-57], the Ki is 500 to 5000 nM at Aurora-2 and less than 500 nM on c-Met.

As to `CCN(CCN)C(=O)c1ccc(-c2cnc3c(-c4ccccn4)c(N)nn3c2)nc1` [Compound V-62], the Ki is 500 to 5000 nM on Aurora-2 and less than 500 nM at c-Met.

Take `CCN1CCN(C(=O)c2ccc(-c3cnc4c(-c5ccccn5)c(N)nn4c3)nc2)CC1` [Compound V-63]: the inhibitory constant (Ki) on Aurora-2 and at c-Met was less than 500 nM throughout.

Consider `COC(=O)N1CCN(C(=O)c2ccc(-c3cnc4c(-c5ccccn5)c(N)nn4c3)nc2)CC1` [Compound V-64], for which the Ki on Aurora-2 and on c-Met was less than 500 nM each time.

Regarding `CN(C)CCNC(=O)c1ccc(-c2cnc3c(-c4ccccn4)c(N)nn3c2)nc1` [Compound V-65], the Ki at Aurora-2 was 500 to 5000 nM; on c-Met, less than 500 nM.

As to `CC(C)N(C)C(=O)c1ccc(-c2cnc3c(-c4ccccn4)c(N)nn3c2)nc1` [Compound V-67], the Ki on Aurora-2 and on c-Met was less than 500 nM in each case.

As for `COCCN1CCN(C(=O)c2ccc(-c3cnc4c(-c5ccccn5)c(N)nn4c3)nc2)CC1` [Compound V-68], the Ki at Aurora-2 and at c-Met was less than 500 nM each time.

For the molecule `CN1CCCN(C(=O)c2ccc(-c3cnc4c(-c5ccccn5)c(N)nn4c3)nc2)CC1` [Compound V-70], the Ki on Aurora-2 and on c-Met was less than 500 nM throughout.

As to `Nc1nn2cc(-c3ccc(C(=O)N4CCCC(CO)C4)cn3)cnc2c1-c1ccccn1` (stereo not drawn) [Compound V-71], the Ki on Aurora-2 and at c-Met was less than 500 nM throughout.

`C#CCN(C)C(=O)c1ccc(-c2cnc3c(-c4ccccn4)c(N)nn3c2)nc1` [Compound V-72]: the Ki at Aurora-2 and on c-Met was less than 500 nM in each case.

Turning to `Nc1nn2cc(-c3ccc(C(=O)NCCF)cn3)cnc2c1-c1ccccn1` [Compound V-73], the Ki at Aurora-2 was 500 to 5000 nM; on c-Met, less than 500 nM.

Take `CCN(CCCCN)C(=O)c1ccc(-c2cnc3c(-c4ccccn4)c(N)nn3c2)nc1` [Compound V-74]: the Ki at Aurora-2 was 500 to 5000 nM; at c-Met, less than 500 nM.

As to `COCCN(C)C(=O)c1ccc(-c2cnc3c(-c4ccccn4)c(N)nn3c2)nc1` [Compound V-75], the Ki on Aurora-2 and on c-Met was less than 500 nM in each case.

Turning to `CCOC(=O)N1CCN(C(=O)c2ccc(-c3cnc4c(-c5ccccn5)c(N)nn4c3)nc2)CC1` [Compound V-76], the Ki on Aurora-2 and on c-Met was less than 500 nM throughout.

In the case of `CCN1CCN(C(=O)c2ccc(-c3cnc4c(-c5ccccn5)c(N)nn4c3)nc2)C(O)C1` (stereo not drawn) [Compound V-78], the Ki at Aurora-2 and at c-Met was less than 500 nM in each case.

As to `Nc1nn2cc(-c3ccc(C(=O)N4CCC[C@@H](O)C4)cn3)cnc2c1-c1ccccn1` [Compound V-79], the Ki on Aurora-2 and at c-Met was less than 500 nM throughout.

Consider `Nc1nn2cc(-c3ccc(C(=O)N4CCC(N)C4)cn3)cnc2c1-c1ccccn1` (stereo not drawn) [Compound V-81], for which the Ki on Aurora-2 and at c-Met was less than 500 nM each time.

For `Nc1nn2cc(-c3ccc(C(=O)N4CCCCC4CCO)cn3)cnc2c1-c1ccccn1` (stereo not drawn) [Compound V-82], the Ki on Aurora-2 is 500 to 5000 nM; at c-Met it was less than 500 nM.

Consider `Nc1nn2cc(-c3ccc(C(=O)N4CCC(CCO)CC4)cn3)cnc2c1-c1ccccn1` [Compound V-83], for which the Ki at Aurora-2 and on c-Met was less than 500 nM throughout.

As for `CCCN(CCCN)C(=O)c1ccc(-c2cnc3c(-c4ccccn4)c(N)nn3c2)nc1` [Compound V-85], the Ki was 500 to 5000 nM on Aurora-2 and less than 500 nM at c-Met.

Turning to `Nc1nn2cc(-c3ccc(C(=O)N4CCC4)cn3)cnc2c1-c1ccccn1` [Compound V-86], the values for the Ki at Aurora-2 and at c-Met were 500 to 5000 nM and less than 500 nM, respectively.

In the case of `Nc1nn2cc(-c3ccc(C(=O)N4CCSCC4)cn3)cnc2c1-c1ccccn1` [Compound V-87], the Ki at Aurora-2 and on c-Met was less than 500 nM each time.

Regarding `CCN(C)C(=O)c1ccc(-c2cnc3c(-c4ccccn4)c(N)nn3c2)nc1` [Compound V-89], the Ki on Aurora-2 and at c-Met was less than 500 nM in each case.

For `CCN(CCC#N)C(=O)c1ccc(-c2cnc3c(-c4ccccn4)c(N)nn3c2)nc1` [Compound V-90], the Ki on Aurora-2 and on c-Met was less than 500 nM throughout.

Turning to `CCCN(CCO)C(=O)c1ccc(-c2cnc3c(-c4ccccn4)c(N)nn3c2)nc1` [Compound V-92], the Ki at Aurora-2 and on c-Met was less than 500 nM each time.

On to `Nc1nn2cc(-c3ccc(C(=O)N4CCC[C@@H]4CO)cn3)cnc2c1-c1ccccn1` [Compound V-93], for which the Ki at Aurora-2 and on c-Met was less than 500 nM each time.

Regarding `CN(CCN)C(=O)c1ccc(-c2cnc3c(-c4ccccn4)c(N)nn3c2)nc1` [Compound V-94], the values for the Ki on Aurora-2 and at c-Met were 500 to 5000 nM and less than 500 nM, respectively.

`Cc1cnc2c(-c3cc(N4CCCCC4)ncn3)c(N)nn2c1` [Compound V-276]: the Ki on Aurora-2 was 500 to 5000 nM; at c-Met it was less than 500 nM.

Consider `Cc1cnc2c(-c3cc(NCC4CC4)ncn3)c(N)nn2c1` [Compound V-277], for which the results for the Ki at Aurora-2 and at c-Met were 500 to 5000 nM and less than 500 nM, respectively.

Consider `Cc1cnc2c(-c3cc(NCC4CCCO4)ncn3)c(N)nn2c1` (stereo not drawn) [Compound V-278], for which the Ki on Aurora-2 was 500 to 5000 nM; at c-Met, less than 500 nM.

On to `Cc1cnc2c(-c3cc(Nc4ccccc4)ncn3)c(N)nn2c1` [Compound V-279], for which the Ki on Aurora-2 and at c-Met was less than 500 nM throughout.

Take `Nc1nn2cc(Cl)cnc2c1-c1ccccn1` [Compound V-280]: the results for the Ki on Aurora-2 and at c-Met were less than 500 nM and 500 to 5000 nM, respectively.

With `CSc1cc(-c2c(N)nn3cc(C)cnc23)ncn1` [Compound V-281], the Ki at Aurora-2 was 500 to 5000 nM; on c-Met, less than 500 nM.

On to `Cc1cnc2c(-c3cc(NC4CCN(Cc5ccccc5)CC4)ncn3)c(N)nn2c1` [Compound V-285], for which the Ki on Aurora-2 is 500 to 5000 nM; on c-Met, less than 500 nM.

As to `Cc1cnc2c(-c3cc(NC4CCN(Cc5ccccc5)C4)ncn3)c(N)nn2c1` (stereo not drawn) [Compound V-286], the Ki on Aurora-2 was 500 to 5000 nM; on c-Met, less than 500 nM.

On to `Cc1cnc2c(-c3cc(NC4CC4)ncn3)c(N)nn2c1` [Compound V-289], for which the figures for the Ki on Aurora-2 and at c-Met were 500 to 5000 nM and less than 500 nM, respectively.

Turning to `Cc1cnc2c(-c3cc(NC4CCC4)ncn3)c(N)nn2c1` [Compound V-290], the values for the Ki at Aurora-2 and at c-Met were 500 to 5000 nM and less than 500 nM, respectively.

On to `Cc1cnc2c(-c3cc(NC4CCCCC4)ncn3)c(N)nn2c1` [Compound V-291], for which the Ki was 500 to 5000 nM at Aurora-2 and less than 500 nM at c-Met.

Consider `Cc1cnc2c(-c3cc(N[C@H](C)CO)ncn3)c(N)nn2c1` [Compound V-293], for which the values for the Ki at Aurora-2 and on c-Met were 500 to 5000 nM and less than 500 nM, respectively.

Take `CC[C@H](C)Nc1cc(-c2c(N)nn3cc(C)cnc23)ncn1` [Compound V-294]: the Ki is 500 to 5000 nM at Aurora-2 and less than 500 nM on c-Met.

As to `Cc1cnc2c(-c3cc(N[C@@H](C)CO)ncn3)c(N)nn2c1` [Compound V-295], the figures for the Ki on Aurora-2 and on c-Met were 500 to 5000 nM and less than 500 nM, respectively.
